# Results published in US20230310424A1, “METHODS AND MATERIALS FOR INCREASING NICOTINAMIDE PHOSPHORIBOSYL TRANSFERASE ACTIVITY” (University of Pittsburgh - Of the Commonwealth System of …, priority 2020, published 2023).
# Tested on: NAD^+ levels in cells
# Assay: Assay for Total NADH and NAD+ Measurements in Cells
# Type: cell-based
# Conditions: cells incubated overnight with test compound; 100 percent = no change vs untreated control cells; cell type and concentration not given
# Experimental: 2,000 cells/well and, at the same time, test compounds dissolved in media at the desired concentration were added to each well. The treated cells were incubated overnight in CO2 incubator. The cells were washed 6 times with PBS with 1 mM CaCl2 and 1 mM MgCl2. In the last wash, 10 μL of PBS with 1 mM CaCl2 and 1 mM MgCl2 per well were left in each well. Immediately thereafter, 10 μL 0.4% dodecyltrimethyl-ammonium bromide (DTAB) in phosphate buffer pH 8.0 as added, and the plates were shaked at 1000 rpm for 5 minutes. 60 μL reaction mix was added, and fluorescence at Ex/Em 530/585 was immediately monitored. A linear increase should be achieved with 8 cycles every 92 seconds, 10 number of flashes/well/cycle. The reaction mix was prepared per the following table, respecting the amount and order in which each component was added:
# A percentage of 100 percent would indicate no increase or decrease in NAD^+ levels as compared to that measured for untreated control cells, while a percentage of 125 percent would indicate an increase in NAD^+ levels of 25 percent as compared to that measured for untreated control cells.
row,SMILES,"A: increase in NAD^+ levels in cells in response to the test compound, as the percent of NAD^+ levels compared to that in the absence of the test compound [%]"
1,C#CCNC(=O)c1ccc2nc(-c3cccc(N(C)C)c3)c(-c3cccc(N(C)C)c3)nc2c1 [BC19499],165
2,Cn1cnnc1-c1ccc2nc(-c3ccc(F)cc3F)c(-c3ccccc3)nc2c1 [BC19444],112
3,NC(=O)c1ccc2nc(-c3ccc(F)cc3)c(C(F)(F)F)nc2c1 [BC19117],116
4,Fc1ccc(-c2nc3cc(-c4nnn[nH]4)ccc3nc2-c2cccs2)cc1 [BC19186],105
5,O=C(O)c1ccc2nc(-c3ccc(F)cc3)c(-c3ccc(F)cc3)nc2c1 [BC19118],108
6,C#CCNC(=O)c1cnc2nc(-c3ccc(F)cc3)c(-c3ccc(F)cc3)nc2c1 [BC20257],130
7,CN1CCN(C(=O)c2ccc3nc(-c4ccc(F)cc4)c(C(F)(F)F)nc3c2)CC1 [BC19110],105
8,Cc1cnc(-c2ccc3nc(-c4ccc(F)cc4)c(-c4cccs4)nc3c2)o1 [BC19249],119
9,CN(C)c1cccc(-c2nc3ccc(C(=O)NCCO)cc3nc2-c2cccc(N(C)C)c2)c1 [BC19502],115
10,CN(C)CCNC(=O)c1cnc2nc(-c3ccc(F)cc3)c(-c3ccc(F)cc3)nc2c1 [BC20201],133
11,Fc1ccc(-c2nc3cc(-c4nnn[nH]4)ccc3nc2C(F)(F)F)cc1 [BC19113],110
12,CNC(=O)c1ccc2nc(-c3cccs3)c(-c3ccc(F)cc3)nc2c1 [BC19119],112
13,C#CCNC(=O)c1ccc2nc(-c3cccc(NC(=O)CN(C)C)c3)c(-c3cccc(NC(=O)CN(C)C)c3)nc2c1 [BC20287],120
14,C#CCNC(=O)c1ccc2nc(-c3ccc(F)cc3)c(-c3cccs3)nc2c1 [BC19189],109
15,CN1CCN(C(=O)c2ccc3nc(-c4ccc(C#N)cc4)c(-c4ccc(C#N)cc4)nc3c2)CC1 [BC19446],106
16,O=C(O)c1ccc2nc(-c3ccc(F)cc3)c(-c3cccs3)nc2c1 [BC19156],105
17,CN(C)c1cccc(-c2nc3ccc(C(=O)O)cc3nc2-c2cccc(N(C)C)c2)c1 [BC19500],107
18,COCCNC(=O)c1cnc2nc(-c3ccc(F)cc3)c(-c3ccc(F)cc3)nc2c1 [BC20200],132
19,Fc1ccc(-c2nc3ccc(-c4nnn[nH]4)cc3nc2-c2ccc(F)cc2)cc1 [BC19144],107
20,CN1CCN(C(=O)c2ccc3nc(-c4cccs4)c(-c4ccc(F)cc4)nc3c2)CC1 [BC19109],111
21,CN1CCN(C(=O)c2ccc3nc(C(F)(F)F)c(-c4cccnc4)nc3c2)CC1 [BC19105],105
22,CN1CCN(C(=O)c2ccc3nc(C(F)(F)F)c(-c4ccncc4)nc3c2)CC1 [BC19149],106
23,Fc1ccc(-c2nc3ccc(-c4ncco4)cc3nc2-c2ccc(F)cc2)cc1 [BC19145],106
24,CS(=O)(=O)c1ccc(-c2nc3ccc(-c4ncco4)cc3nc2-c2ccc(F)cc2)s1 [BC19248],125
25,NC(=O)c1ccc2nc(-c3ccc(F)cc3)c(-c3cccs3)nc2c1 [BC19187],113
26,Cc1noc(-c2ccc3nc(-c4ccc(F)cc4)c(-c4ccc(F)cc4)nc3c2)n1 [BC19193],109
